{
  "source": "patent US4260599A",
  "about": "“Antifibrotic substance P-1894B” (Takeda Chemical Industries, Ltd., priority 1978, dated 1981)",
  "key": {"pKa by titrimetry": {"assay": "pKa by titrimetry", "format": "physicochemical", "details": "in 66.7% aqueous DMF"}, "[1]": {"tested_on": "protocollagen proline hydroxylase", "assay": "Carbon tetrachloride-induced hepatic cirrhosis: protocollagen proline hydroxylase activity in the liver", "format": "in vivo, Sprague-Dawley rats", "details": "for Protocollagen proline hydroxylase: liver, 4 weeks, CCl4 group 504 ± 87", "protocol": "(§1) Female Sprangue-Dawley rats weighing approximately 110 g each were divided into 4 groups. Group I (control) received saline (1 ml/rat) and Groups II, III and IV received 10% CCl4 -olive oil mixture (1 ml/rat) intraperitoneally twice weekly for a total 8 doses. Groups III and IV received P-1894B orally with food for 4 weeks. Average doses of P-1894B in Groups III and IV were 3.25 and 6.16 mg/kg/day, respectively. The rats were sacrificed a day after the last injection and the livers were immediately removed for the assays.\nA 10% homogenate of the liver was prepared in 20 mM Tris-HCl buffer, pH 7.5, containing 0.2 M NaCl, 0.1 M glycine, 5×10^-5 M 1,4-dithiothreitol and 0.1% Triton (polyethylene glycol p-isooctylphenyl ether) X-100 using a Polytron homogenizer. The homogenate was centrifuged at 15,000 g for 20 min and the clear supernatant was assayed for proline hydroxylase activity by the method of Hutton et al [Anal. Biochem. 16, 384-394 (1966)]. The protein content of the homogenate was measured by the method of Lowry et al [J. Biol. Chem. 193, 265-275 (1951)] using bovine serum albumin as the standard."}, "[2]": {"tested_on": "collagen biosynthesis (uterus)", "assay": "Collagen biosynthesis inhibiting activity in uteri of 17β-estradiol-treated rats", "format": "in vivo, Sprague-Dawley rats", "protocol": "(§2) Basically in accordance with a procedure described by R. A. Salvador et al [Arch. Biochem. Biophys. 174, 382 (1976)], 0.3 mg/kg was intraperitoneally administered to Sprague-Dawley rats (female, 3 weeks old) once daily for 6 days and the amounts of collagen and non-collagenous proteins in the uteri were compared with the figures for control."}, "[3]": {"assay": "Carbon tetrachloride-induced hepatic cirrhosis: body weight", "format": "in vivo, Sprague-Dawley rats", "details": "4 weeks", "protocol": "as §1"}, "[4]": {"target": "T1, protocollagen proline hydroxylase (Gallus gallus, UniProt P16924)", "T1 construct": "partially purified enzyme preparation obtained from chick embryos; from tissue; host or cells: chick embryos", "T1 sequence (P16924 1-516)": "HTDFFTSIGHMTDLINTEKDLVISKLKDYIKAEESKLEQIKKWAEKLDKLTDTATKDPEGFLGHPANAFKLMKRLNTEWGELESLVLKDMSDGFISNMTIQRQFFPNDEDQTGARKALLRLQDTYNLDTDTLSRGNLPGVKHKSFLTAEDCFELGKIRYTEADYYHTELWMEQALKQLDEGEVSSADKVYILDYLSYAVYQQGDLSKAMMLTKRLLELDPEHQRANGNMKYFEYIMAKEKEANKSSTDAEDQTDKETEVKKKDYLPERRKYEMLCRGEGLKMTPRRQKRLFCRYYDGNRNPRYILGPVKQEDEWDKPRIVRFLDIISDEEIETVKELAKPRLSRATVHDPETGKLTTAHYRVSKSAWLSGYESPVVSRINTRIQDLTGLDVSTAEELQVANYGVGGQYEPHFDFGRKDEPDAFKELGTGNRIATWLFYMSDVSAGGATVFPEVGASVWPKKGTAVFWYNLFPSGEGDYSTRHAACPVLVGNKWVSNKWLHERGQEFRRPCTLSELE", "T1 sequence (P09102 23-515 partner)": "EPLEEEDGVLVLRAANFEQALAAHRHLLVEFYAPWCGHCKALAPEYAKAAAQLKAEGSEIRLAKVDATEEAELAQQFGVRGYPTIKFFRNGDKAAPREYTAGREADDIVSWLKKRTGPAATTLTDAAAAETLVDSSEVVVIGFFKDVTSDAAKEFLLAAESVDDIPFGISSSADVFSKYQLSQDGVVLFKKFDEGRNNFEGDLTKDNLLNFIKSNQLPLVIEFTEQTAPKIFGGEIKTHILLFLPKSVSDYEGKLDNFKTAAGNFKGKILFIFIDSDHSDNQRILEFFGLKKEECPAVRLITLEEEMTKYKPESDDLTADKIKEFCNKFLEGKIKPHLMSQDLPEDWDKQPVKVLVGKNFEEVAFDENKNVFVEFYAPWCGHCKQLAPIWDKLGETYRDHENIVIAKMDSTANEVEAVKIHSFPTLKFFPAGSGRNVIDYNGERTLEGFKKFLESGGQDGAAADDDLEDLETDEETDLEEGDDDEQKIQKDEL", "assay": "Protocollagen proline hydroxylase inhibitor activity", "format": "biochemical", "details": "partially purified enzyme from chick embryos; substrate (Pro-Pro-Gly)5.4H2O"}, "Solubility": {"assay": "Solubility", "format": "physicochemical"}, "[5]": {"assay": "Body weight of rats in the uterus collagen test", "format": "in vivo, Sprague-Dawley rats", "details": "0.3 mg/kg i.p. once daily for 6 days + 17β-estradiol (5 μg); groups of 4 rats", "protocol": "as §2"}, "[6]": {"tested_on": "hydroxyproline content of the liver (collagen biosynthesis)", "assay": "Carbon tetrachloride-induced hepatic cirrhosis: hydroxyproline content of the liver", "format": "in vivo, Sprague-Dawley rats", "details": "for Hydroxyproline: liver, 4 weeks, CCl4 group 145.8 ± 18.3", "protocol": "as §1\nHydroxyproline content of the liver was measured in 6 N HCl hydrolysate (110° C., 22h) by the method of Blumenkrantz et al [Anal. Biochem. 63, 331-340 (1975)]."}, "[7]": {"details": "6.16 mg/kg/day, p.o., compared to livers of CCl4-fibrotic rats"}, "[8]": {"details": "CCl4 + P-1894B 3.25 mg/kg/day orally with food"}, "[9]": {"details": "CCl4 + P-1894B 6.16 mg/kg/day orally with food, P<0.05 vs CCl4, n=5"}, "[10]": {"details": "0.3 mg/kg i.p. once daily for 6 days + 17β-estradiol (5 μg)"}},
  "data": [
    {"smiles": "C[C@@H]1O[C@@H](O[C@H]2CC[C@H](O[C@H]3[C@H](O)C[C@H](c4ccc5c(c4O)C(=O)C4=C(C5=O)[C@@]5(O)C(=O)C[C@](C)(O[C@H]6CC[C@H](O[C@H]7C=CC(=O)[C@H](C)O7)[C@H](C)O6)C[C@@]5(O)C=C4)O[C@@H]3C)O[C@H]2C)C=CC1=O", "note": "[P-1894B]", "values": [
      {"measurement": "PKa", "setting": "pKa by titrimetry", "value": 10.15},
      {"measurement": "specific activity of protocollagen proline hydroxylase in the liver (in words)", "setting": "[1]; [7]", "value": "significantly decreased"},
      {"measurement": "Protocollagen proline hydroxylase", "setting": "[1]; [8]", "value": "457 ± 68 dpm/mg of protein"},
      {"measurement": "Protocollagen proline hydroxylase", "setting": "[1]; [9]", "value": "357 ± 15 dpm/mg of protein"},
      {"measurement": "inhibition of the biosynthesis of collagen (in words)", "setting": "[2]; 0.3 mg/kg i.p. once daily for 6 days", "value": "inhibited the biosynthesis of collagen specifically and significantly"},
      {"measurement": "% Inhibition, Collagen", "setting": "[2]; [10]", "value": 78, "unit": "%"},
      {"measurement": "% Inhibition, Non-collagenous protein", "setting": "[2]; [10]", "value": -21, "unit": "%"},
      {"measurement": "Non-collagenous protein in uterus", "setting": "[2]; 0.3 mg/kg i.p. once daily for 6 days + 17β-estradiol (5 μg), = total protein - collagen, control (2) 24.21 ± 7.21", "value": "26.99 ± 4.67", "unit": "mg"},
      {"measurement": "Collagen in uterus", "setting": "[2]; 0.3 mg/kg i.p. once daily for 6 days + 17β-estradiol (5 μg), groups of 4 rats, control (2) 4.39 ± 0.16, p < 0.01 vs control (2)", "value": "3.41 ± 0.22", "unit": "mg"},
      {"measurement": "Total protein of uterus", "setting": "[2]; 0.3 mg/kg i.p. once daily for 6 days + 17β-estradiol (5 μg), groups of 4 rats, control (2) 28.6 ± 7.3", "value": "30.4 ± 5.0", "unit": "mg"},
      {"measurement": "weight, final", "setting": "[3]; CCl4 + P-1894B 3.25 mg/kg/day orally with food, initial 112 ± 9", "value": "199 ± 19", "unit": "g"},
      {"measurement": "weight, final", "setting": "[3]; CCl4 + P-1894B 6.16 mg/kg/day orally with food, initial 111 ± 5", "value": "198 ± 9", "unit": "g"},
      {"measurement": "concentration required for a 50% inhibition of 100 μg (as protein) of partially purified enzyme", "setting": "[4]", "value": "about 7 μg/ml"},
      {"measurement": "Solubility", "setting": "Solubility; in chloroform, dioxane, ethyl acetate, dimethylsulfoxide, acetone, methyl ethyl ketone, pyridine, methanol, ethanol, benzene, toluene, diethyl ether and 0.1 N NaOH", "value": "Readily soluble or soluble"},
      {"measurement": "Solubility", "setting": "Solubility; in petroleum ether, n-hexane and cyclohexane", "value": "sparingly soluble or insoluble"},
      {"measurement": "Body weight of rats", "setting": "[5]", "value": "72 ± 5", "unit": "g"},
      {"measurement": "hydroxyproline content in the liver (in words)", "setting": "[6]; [7]", "value": "significantly decreased"},
      {"measurement": "Hydroxyproline", "setting": "[6]; [8]", "value": "132.4 ± 29.6 μg/100 mg of protein"},
      {"measurement": "Hydroxyproline", "setting": "[6]; [9]", "value": "122.6 ± 14.0 μg/100 mg of protein"}
    ]}
  ]
}
